Read-outs that look alike come from different tables or passages of the source.
Experiments:
ATR kinase = ATR kinase (Homo sapiens, UniProt Q13535); experiment: Assay of ATR kinase activity (time-resolved fluorescence, phosphorylation of p53-derived protein); type: biochemical
Description: Biotinylated protein derived from p53 (Eurofins, art. No.: 14-952) was phosphorylated with ATR kinase. The amount of phosphorylated protein was determined by time-resolved fluorescence in this assay. The amount of phosphorylated protein was detected by anti-p53-phospho-(serine 15)-K-specific antibody (Cisbio, art. No.: 61GSTDLA) and d2 labeled anti-GST antibody (Cisbio, art. No. 61P08KAE). Before the assay, the following working solutions were formulated as required: 1×reaction buffer (20 mM HEPES PH8.0, 1% glycerol, 0.01% Brij-35), dilution buffer (20 mM HEPES PH8.0, 1% glycerol, 0.01% Brij-35, 5 mM DTT and 1% BSA), stop solution (20 mM HEPES PH8.0, 1% glycerol, 0.01% Brij-35, 250 mM EDTA), detection buffer (50 mM HEPES pH7.0, 150 mM NaCl, 267 mM KF, 0.1% sodium cholate, 0.01% Tween-20, 0.0125% sodium azide). The reagents used above were purchased from Sigma or Invitrogen, except for those whose manufacturers were mentioned.
Operations were as follows:
4× serially diluted compound solutions were prepared with 1× reaction buffer to give 9 compound solutions with different concentrations, and 2.5 μL of the 4× serially diluted compound solutions were added to a 384-well analysis plate (784075, Greiner). 4×p53 substrate working solution (40 nM) was prepared with 1× reaction buffer, and 2.5 μL of the 4×p53 substrate working solution was added to a 384-well analysis plate. 4×ATR/ATRIP working solution (12.8 ng/μL) was prepared with dilution buffer, and 2.5 μL of the 4×pATR/ATRIP working solution was added to a 384-well analysis plate. 4×ATP working solution (2 mM) was prepared with deionized water, and 2.5 μL of the 4×ATP working solution was added to a 384-well analysis plate. The plates were incubated at room temperature in dark for 30 minutes. 5 μL of stop solution was added to the 384 analysis plates. Finally, 5 μL of assay mixture (0.084 ng/μL Anti-phospho-p53(ser15)-K and 5 ng/μL Anti-GST-d2) was added to the 384 well analysis plates, and incubated at room temperature overnight. The fluorescence signal was detected with ENVISION (Perkinelmer) instrument (excitation wavelength: 320 nm, emission wavelength: 665 nm and 615 nm). The inhibition rate in each well was calculated by the fluorescence intensity value in each well:ER (Emission Ratio)=(Fluorescence intensity at 665 nm/Fluorescence intensity at 615 nm); inhibition rate=(ER of positive−ER of assay compound)/(ER of positive−ER of negative)×100%. IC50 values of compounds were calculated by standard software for parameter fitting (GraphPad Prism 6.0).

MV4-11 (leukemia) = experiment: Cell proliferation inhibition in vitro, CellTiter-Glo, MV4-11; type: cell-based; conditions: Homo sapiens, read-out: MV4-11/IC50/μM
Description: (§1) By detecting the effect of compounds on cell activity in vitro in tumor cell lines TOV21G (ovarian cancer) and MV4-11 (leukemia), the inhibitory effect of compounds on cell proliferation was studied in this assay.
(§2) TOV21G cells and MV4-11 cells were purchased from American Type Culture Collection (ATCC).
MV-4-11 cells were cultured in IMDM medium (containing 20% of FBS). About 10,000 cells were inoculated in each well of a 96-well culture plate, and treated by adding different concentrations (0-10 μM) of compounds to be assayed. Each group was assayed in triplicate. Blank wells (containing medium only) and control wells (inoculated cells without being treated with drug) were set. Cells were cultured for 120 hours. 40 μL of Cell Titer-Glo solutions were added to each well, and the cells were incubated with shaking for 20 min in the dark. 100 μL of solution was transferred from each well to a 96-well blank plate, and the luminescence value was read by Biotek Synergy HI multifunctional microplate reader. Inhibition rate (%)=100%×(control well−assay well)/(control well−blank well)

TOV21G (ovarian cancer) = experiment: Cell proliferation inhibition in vitro, CellTiter-Glo, TOV21G; type: cell-based; conditions: Homo sapiens, read-out: TOV21G/IC50/μM
Description: as §1, §2
TOV21G cells were cultured in MCDB105/M199 medium (containing 15% of FBS), and used for assaying when the cell confluence reached 85% or more. About 1000 cells were inoculated in each well of a 96-well culture plate, and cultured for 24 hours. Different concentrations (0-10 μM) of compounds to be assayed were added to treat the cells. Each group was assayed in triplicate. Blank wells (containing medium only) and control wells (inoculated cells without being treated with drug) were set. Cells were cultured for 120 hours. 40 μL of Cell Titer-Glo solutions (Promega, #G7573) were added to each well, and the cells were incubated with shaking for 20 min in the dark. 100 μL of solution was transferred from each well to a 96-well blank plate (Corning, #3917), and the luminescence value was read by Biotek Synergy H1 multifunctional microplate reader.

[1] = MV4-11 cells, 120 hours, CellTiter-Glo
[2] = TOV21G cells, 120 hours, CellTiter-Glo

ATR kinase, sequence (Q13535 whole entry): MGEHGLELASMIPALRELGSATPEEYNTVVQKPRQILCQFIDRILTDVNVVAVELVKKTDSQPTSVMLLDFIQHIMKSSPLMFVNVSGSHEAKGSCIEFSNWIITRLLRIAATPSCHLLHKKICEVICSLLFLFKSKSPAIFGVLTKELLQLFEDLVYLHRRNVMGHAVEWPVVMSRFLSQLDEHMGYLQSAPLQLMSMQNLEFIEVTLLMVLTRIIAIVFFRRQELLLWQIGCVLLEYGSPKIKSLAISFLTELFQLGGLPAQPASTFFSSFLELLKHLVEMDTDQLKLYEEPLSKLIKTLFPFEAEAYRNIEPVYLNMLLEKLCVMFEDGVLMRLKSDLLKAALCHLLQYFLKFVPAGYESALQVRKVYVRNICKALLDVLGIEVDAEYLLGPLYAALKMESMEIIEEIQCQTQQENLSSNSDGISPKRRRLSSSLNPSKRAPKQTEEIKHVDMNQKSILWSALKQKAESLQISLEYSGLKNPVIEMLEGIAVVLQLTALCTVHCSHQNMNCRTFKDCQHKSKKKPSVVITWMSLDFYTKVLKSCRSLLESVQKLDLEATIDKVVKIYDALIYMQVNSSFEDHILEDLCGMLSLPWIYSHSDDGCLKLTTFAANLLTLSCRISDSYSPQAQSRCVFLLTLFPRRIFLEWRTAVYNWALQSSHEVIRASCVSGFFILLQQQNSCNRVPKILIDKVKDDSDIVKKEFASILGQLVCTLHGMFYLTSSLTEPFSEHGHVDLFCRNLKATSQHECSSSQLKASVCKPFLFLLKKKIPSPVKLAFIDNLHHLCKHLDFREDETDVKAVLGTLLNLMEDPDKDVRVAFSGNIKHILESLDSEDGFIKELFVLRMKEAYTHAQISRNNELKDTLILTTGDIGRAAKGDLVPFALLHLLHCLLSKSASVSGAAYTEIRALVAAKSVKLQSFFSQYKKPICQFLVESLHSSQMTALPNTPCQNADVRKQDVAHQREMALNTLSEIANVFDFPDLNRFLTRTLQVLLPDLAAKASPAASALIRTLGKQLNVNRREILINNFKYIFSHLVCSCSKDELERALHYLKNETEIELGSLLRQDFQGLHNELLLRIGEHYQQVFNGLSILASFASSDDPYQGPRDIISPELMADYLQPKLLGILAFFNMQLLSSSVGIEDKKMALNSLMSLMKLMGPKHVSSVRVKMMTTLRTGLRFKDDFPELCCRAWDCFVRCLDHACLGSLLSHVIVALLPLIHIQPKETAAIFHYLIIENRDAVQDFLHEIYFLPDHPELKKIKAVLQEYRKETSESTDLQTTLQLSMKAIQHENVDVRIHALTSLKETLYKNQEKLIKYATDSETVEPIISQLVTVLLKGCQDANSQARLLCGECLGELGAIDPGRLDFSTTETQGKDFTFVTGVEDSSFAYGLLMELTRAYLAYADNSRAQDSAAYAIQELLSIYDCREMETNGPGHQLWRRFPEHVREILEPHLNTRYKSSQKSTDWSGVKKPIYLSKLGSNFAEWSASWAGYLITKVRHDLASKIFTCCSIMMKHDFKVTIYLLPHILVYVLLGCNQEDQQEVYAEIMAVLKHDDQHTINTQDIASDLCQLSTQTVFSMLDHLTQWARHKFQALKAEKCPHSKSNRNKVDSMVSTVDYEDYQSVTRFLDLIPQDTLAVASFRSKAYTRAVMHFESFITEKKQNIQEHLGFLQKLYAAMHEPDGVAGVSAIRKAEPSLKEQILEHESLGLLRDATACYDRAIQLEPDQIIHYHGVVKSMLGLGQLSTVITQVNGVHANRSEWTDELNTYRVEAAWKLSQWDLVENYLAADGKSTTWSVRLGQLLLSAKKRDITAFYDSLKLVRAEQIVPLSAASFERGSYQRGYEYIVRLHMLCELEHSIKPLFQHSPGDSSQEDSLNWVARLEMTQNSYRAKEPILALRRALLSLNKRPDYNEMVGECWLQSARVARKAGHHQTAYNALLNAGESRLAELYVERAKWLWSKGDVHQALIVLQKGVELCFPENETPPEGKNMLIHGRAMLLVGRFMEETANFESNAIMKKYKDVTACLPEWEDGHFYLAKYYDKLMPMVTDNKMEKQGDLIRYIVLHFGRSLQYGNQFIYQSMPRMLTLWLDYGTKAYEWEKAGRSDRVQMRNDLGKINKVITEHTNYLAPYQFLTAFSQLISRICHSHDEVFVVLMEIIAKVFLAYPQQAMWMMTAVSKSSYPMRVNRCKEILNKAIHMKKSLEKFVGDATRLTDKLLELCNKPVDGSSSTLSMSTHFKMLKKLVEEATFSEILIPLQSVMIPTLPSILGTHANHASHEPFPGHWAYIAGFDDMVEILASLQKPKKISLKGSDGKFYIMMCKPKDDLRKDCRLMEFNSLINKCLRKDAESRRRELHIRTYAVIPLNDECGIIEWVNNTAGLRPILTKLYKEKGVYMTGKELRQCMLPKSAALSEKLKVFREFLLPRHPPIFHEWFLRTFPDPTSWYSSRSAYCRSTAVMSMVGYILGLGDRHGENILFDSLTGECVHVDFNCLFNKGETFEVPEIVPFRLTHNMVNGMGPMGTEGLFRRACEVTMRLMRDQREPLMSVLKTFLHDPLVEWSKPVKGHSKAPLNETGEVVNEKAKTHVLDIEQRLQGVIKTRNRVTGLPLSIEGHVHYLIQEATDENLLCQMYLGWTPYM
ATR kinase, sequence (Q8WXE1 whole entry partner): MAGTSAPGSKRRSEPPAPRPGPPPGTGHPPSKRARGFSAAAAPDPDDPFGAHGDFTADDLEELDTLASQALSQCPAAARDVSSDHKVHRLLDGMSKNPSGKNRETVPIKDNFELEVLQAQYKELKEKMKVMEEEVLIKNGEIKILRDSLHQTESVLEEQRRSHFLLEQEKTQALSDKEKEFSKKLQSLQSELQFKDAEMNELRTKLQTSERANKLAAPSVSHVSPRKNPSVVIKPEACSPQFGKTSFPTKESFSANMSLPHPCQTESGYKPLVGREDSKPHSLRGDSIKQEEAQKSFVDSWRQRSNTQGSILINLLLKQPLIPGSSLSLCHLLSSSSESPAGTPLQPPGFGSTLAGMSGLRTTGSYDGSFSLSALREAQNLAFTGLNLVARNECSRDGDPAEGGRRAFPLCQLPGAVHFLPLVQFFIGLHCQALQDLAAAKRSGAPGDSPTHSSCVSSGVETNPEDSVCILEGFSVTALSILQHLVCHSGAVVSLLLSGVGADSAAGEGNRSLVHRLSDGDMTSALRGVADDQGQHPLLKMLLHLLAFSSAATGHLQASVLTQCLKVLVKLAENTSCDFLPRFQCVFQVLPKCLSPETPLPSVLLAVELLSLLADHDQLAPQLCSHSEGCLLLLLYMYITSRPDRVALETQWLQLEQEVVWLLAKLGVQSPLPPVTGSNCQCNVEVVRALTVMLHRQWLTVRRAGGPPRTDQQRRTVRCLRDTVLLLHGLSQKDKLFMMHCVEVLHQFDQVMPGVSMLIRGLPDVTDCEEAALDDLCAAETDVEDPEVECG

IC50 (ATR kinase)	IC50 (MV4-11 (leukemia); [1])	IC50 (TOV21G (ovarian cancer); [2])	SMILES	IC50 (TOV21G (ovarian cancer); TOV21G, 120 h)	IC50 (MV4-11 (leukemia); MV4-11, 120 h)
11 nM	0.658 µM		COc1cncc(-n2nc(C)c(-c3cc(N4CCOC[C@H]4C)nc(-c4cc(F)cc5[nH]ccc45)n3)c2C)c1 [Compound A1]		
8 nM	0.635 µM	0.397 µM	Cc1nn(-c2ccncc2)c(C)c1-c1cc(N2CCOC[C@H]2C)nc(-c2cc(F)cc3[nH]ccc23)n1 [Compound A2]		
10 nM	0.193 µM	0.313 µM	Cc1nn(-c2cccnc2)c(C)c1-c1cc(N2CCOC[C@H]2C)nc(-c2cc(F)cc3[nH]ccc23)n1 [Compound A4]		
30 nM	0.778 µM	0.647 µM	COc1ccc(-n2nc(C)c(-c3cc(N4CCOC[C@H]4C)nc(-c4cc(F)cc5[nH]ccc45)n3)c2C)cn1 [Compound A5]		
14 nM	0.656 µM	0.423 µM	Cc1nn(-c2ccc(F)nc2)c(C)c1-c1cc(N2CCOC[C@H]2C)nc(-c2cc(F)cc3[nH]ccc23)n1 [Compound A6]		
6 nM	0.1 µM	0.33 µM	Cc1nn(-c2ccc(=O)[nH]c2)c(C)c1-c1cc(N2CCOC[C@H]2C)nc(-c2cc(F)cc3[nH]ccc23)n1 [Compound A7]		
9 nM	0.382 µM	0.274 µM	Cc1ncccc1-n1nc(C)c(-c2cc(N3CCOC[C@H]3C)nc(-c3cc(F)cc4[nH]ccc34)n2)c1C [Compound A8]		
16 nM	0.198 µM	0.28 µM	Cc1nn(-c2cncc(C#N)c2)c(C)c1-c1cc(N2CCOC[C@H]2C)nc(-c2cc(F)cc3[nH]ccc23)n1 [Compound A9]		
20 nM	0.206 µM	0.556 µM	Cc1nn(-c2cnccc2Cl)c(C)c1-c1cc(N2CCOC[C@H]2C)nc(-c2cc(F)cc3[nH]ccc23)n1 [Compound A10]		
36 nM	0.801 µM		CCc1cncc(-n2nc(C)c(-c3cc(N4CCOC[C@H]4C)nc(-c4cc(F)cc5[nH]ccc45)n3)c2C)c1 [Compound A12]		
88 nM	2.2 µM		Cc1nn(-c2cncc(C(F)(F)F)c2)c(C)c1-c1cc(N2CCOC[C@H]2C)nc(-c2cc(F)cc3[nH]ccc23)n1 [Compound A13]		
9 nM	0.231 µM	0.522 µM	Cc1nn(-c2cnccc2F)c(C)c1-c1cc(N2CCOC[C@H]2C)nc(-c2cc(F)cc3[nH]ccc23)n1 [Compound A14]		
2 nM	0.107 µM	0.234 µM	Cc1nn(-c2ccnnc2)c(C)c1-c1cc(N2CCOC[C@H]2C)nc(-c2cc(F)cc3[nH]ccc23)n1 [Compound A15]		
1 nM	0.082 µM	0.166 µM	Cc1nn(-c2cccnn2)c(C)c1-c1cc(N2CCOC[C@H]2C)nc(-c2cc(F)cc3[nH]ccc23)n1 [Compound A16]		
1 nM	0.451 µM	0.208 µM	Cc1nn(-c2cncc(Cl)c2)c(C)c1-c1cc(N2CCOC[C@H]2C)nc(-c2ccnc3[nH]ccc23)n1 [Compound A18]		
11 nM	0.528 µM	0.284 µM	Cc1c(-c2cc(N3CCOC[C@H]3C)nc(-c3ccnc4[nH]ccc34)n2)c(C(F)(F)F)nn1-c1cncc(F)c1 [Compound A20]		
6 nM	0.332 µM	0.537 µM	Cc1nn(-c2cncc(C(F)F)c2)c(C)c1-c1cc(N2CCOC[C@H]2C)nc(-c2ccnc3[nH]ccc23)n1 [Compound A21]		

IC50 (ATR kinase)	IC50 (MV4-11 (leukemia); [1])	IC50 (TOV21G (ovarian cancer); [2])	SMILES	IC50 (TOV21G (ovarian cancer); TOV21G, 120 h)	IC50 (MV4-11 (leukemia); MV4-11, 120 h)
3 nM	0.175 µM	0.24 µM	Cc1nn(-c2cncc(O)c2)c(C)c1-c1cc(N2CCOC[C@H]2C)nc(-c2cccc3[nH]ccc23)n1 [Compound A23]		
1 nM	0.18 µM	0.22 µM	Cc1nn(-c2cncc(C(N)=O)c2)c(C)c1-c1cc(N2CCOC[C@H]2C)nc(-c2cccc3[nH]ccc23)n1 [Compound A24]		
7 nM	0.46 µM	0.53 µM	Cc1nn(-c2cnccn2)c(C)c1-c1cc(N2CCOC[C@H]2C)nc(-c2cc(F)cc3[nH]ccc23)n1 [Compound A25]		
22 nM	0.133 µM	0.278 µM	CNc1nc2ccccc2n1-c1nc(-c2c(C)nn(-c3ccc(C#N)nc3)c2C)cc(N2CCOC[C@H]2C)n1 [Compound B2]		
49 nM	0.303 µM	0.411 µM	CNc1nc2ccccc2n1-c1nc(-c2c(C)nn(-c3cncc(Cl)c3)c2C)cc(N2CCOC[C@H]2C)n1 [Compound B3]		
17 nM	0.25 µM	0.306 µM	CNc1nc2ccccc2n1-c1nc(-c2c(C)nn(-c3cncc(C#N)c3)c2C)cc(N2CCOC[C@H]2C)n1 [Compound B4]		
16 nM	0.208 µM	0.383 µM	CNc1nc2ccccc2n1-c1nc(-c2c(C)nn(-c3cnc(N)c(F)c3)c2C)cc(N2CCOC[C@H]2C)n1 [Compound B5]		
13 nM	0.439 µM	0.483 µM	CNc1nc2ccccc2n1-c1nc(-c2c(C)nn(-c3cccnc3)c2C)cc(N2CCOC[C@H]2C)n1 [Compound B6]		
62 nM	0.549 µM	0.544 µM	CNc1nc2ccccc2n1-c1nc(-c2c(C)nn(-c3ccc(OC)nc3)c2C)cc(N2CCOC[C@H]2C)n1 [Compound B7]		
69 nM	0.519 µM	0.212 µM	CC#Cc1cncc(-n2nc(C)c(-c3cc(N4CCOC[C@H]4C)nc(-n4c(NC)nc5ccccc54)n3)c2C)c1 [Compound B8]		
3 nM	0.157 µM	0.226 µM	CNc1nc2ccccc2n1-c1nc(-c2c(C)nn(-c3ccc(=O)[nH]c3)c2C)cc(N2CCOC[C@H]2C)n1 [Compound B9]		
5 nM	0.287 µM	0.219 µM	CNc1nc2ccccc2n1-c1nc(-c2c(C)nn(-c3cncc(C(N)=O)c3)c2C)cc(N2CCOC[C@H]2C)n1 [Compound B10]		
15 nM	0.24 µM	0.276 µM	Cc1nn(-c2cncc(F)c2)c(C)c1-c1cc(N2CCOC[C@H]2C)nc(-n2c(NCCO)nc3ccccc32)n1 [Compound B11]		
3 nM	0.253 µM	0.257 µM	Cc1nn(-c2cncc(F)c2)c(C)c1-c1cc(N2CCOC[C@H]2C)nc(-n2c(N)nc3ccccc32)n1 [Compound B12]		
5 nM			Cc1nn(-c2ccc(=O)[nH]c2)c(C)c1-c1cc(N2CCOC[C@H]2C)nc(-n2c(NCCO)nc3ccccc32)n1 [Compound B13]		
13 nM	0.896 µM	1.07 µM	Cc1nn(-c2cncc(F)c2)c(C)c1-c1cc(C23CCOCC2C3)nc(-c2cc(F)cc3[nH]ccc23)n1 (stereo not shown) [Compound C2]		

SMILES	IC50 (ATR kinase)	IC50 (MV4-11 (leukemia); [1])	IC50 (TOV21G (ovarian cancer); [2])	IC50 (TOV21G (ovarian cancer); TOV21G, 120 h)	IC50 (MV4-11 (leukemia); MV4-11, 120 h)
Cc1nn(-c2cncc(F)c2)c(C)c1-c1nc(-c2cccc3[nH]ccc23)nc(N2CCOC[C@H]2C)n1 [Compound C1]	18 nM			0.349 µM	0.903 µM
